According to patent US7034036B2, “Inhibitors of ABC drug transporters at the blood-brain barrier” (Pain Therapeutics, Inc., priority 2000, dated 2006):

Key:
mice [1] = test: Tail flick anti-nociception, naltrexone given with morphine from day 1 (Groups C, D, combined analysis); format: in vivo; parameters: Enhancement of Latency (tail flick) / Enhancement of Latency by Naltrexone (tail flick): unit not given here
Experimental: In a third series of experiments, 40 male mice were randomized into 5 groups of eight. All mice were administered single 3 mg/kg morphine daily (b.i.d.), beginning on Day 1.
In a final series of experiments, 40 female mice were randomized into 5 groups of eight. All mice were administered single 3 mg/kg morphine daily (b.i.d.), beginning on Day 1.

mice [2] = test: Tolerance to oxycodone in mice, parallel experiments; format: in vivo

Question: For O=C1CC[C@@]2(O)[C@H]3Cc4ccc(O)c5c4[C@@]2(CCN3CC2CC2)[C@H]1O5 [Naltrexone, naltrexone], which “Enhancement of Latency by Naltrexone (tail flick)” value (“Enhancement … (tail flick)” below) (mice [1]; female mice, Group 4: morphine 3 mg/kg + naltrexone 300 ng/kg b.i.d. from day 1, Day 7) is on record?
Answer: 0.2

Question: And the “Enhancement … (tail flick)” value (mice [1]; female mice, Group 4: morphine 3 mg/kg + naltrexone 300 ng/kg b.i.d. from day 1, Day 10)?
Answer: 5.9

Question: And the “Enhancement … (tail flick)” value (mice [1]; female mice, Group 4: morphine 3 mg/kg + naltrexone 300 ng/kg b.i.d. from day 1, Day 11, single bolus 10 μg/kg naltrexone in addition)?
Answer: 0.8

Question: What about the “Enhancement … (tail flick)” value (mice [1]; female mice, Group 5: morphine 3 mg/kg + naltrexone 3000 ng/kg b.i.d. from day 1, Day 1) of the same compound?
Answer: 12.3

Question: What about the “Enhancement … (tail flick)” value (mice [1]; female mice, Group 5: morphine 3 mg/kg + naltrexone 3000 ng/kg b.i.d. from day 1, Day 3) of the same compound?
Answer: 9.6

Question: And the “Enhancement … (tail flick)” value (mice [1]; female mice, Group 5: morphine 3 mg/kg + naltrexone 3000 ng/kg b.i.d. from day 1, Day 5)?
Answer: 3.4

Question: And the “Enhancement … (tail flick)” value (mice [1]; female mice, Group 5: morphine 3 mg/kg + naltrexone 3000 ng/kg b.i.d. from day 1, Day 7)?
Answer: 1.9

Question: What about the “Enhancement … (tail flick)” value (mice [1]; female mice, Group 5: morphine 3 mg/kg + naltrexone 3000 ng/kg b.i.d. from day 1, Day 10) of the same compound?
Answer: 6.7

Question: And the “Enhancement … (tail flick)” value (mice [1]; female mice, Group 5: morphine 3 mg/kg + naltrexone 3000 ng/kg b.i.d. from day 1, Day 11, single bolus 10 μg/kg naltrexone in addition)?
Answer: −0.7

Question: And the “Latency versus other doses” value (mice [1]; female mice, dose 0.3 ng/kg as printed, not significantly different from 0.03 or 3 ng/kg)?
Answer: gave the longest latency

Question: And the “Latency versus other concentrations” value (mice [1]; male mice, Groups A and C combined, days 8 and 10, naltrexone at 300 ng)?
Answer: gave the greatest latency

Question: And the “Enhancement … (tail flick)” value (mice [1]; male mice, Group 2: morphine 3 mg/kg + naltrexone 3 ng/kg b.i.d. from day 1, Day 1)?
Answer: 13.3

Question: What about the “Enhancement … (tail flick)” value (mice [1]; male mice, Group 2: morphine 3 mg/kg + naltrexone 3 ng/kg b.i.d. from day 1, Day 3) of the same compound?
Answer: 7.5

Question: And the “Enhancement … (tail flick)” value (mice [1]; male mice, Group 2: morphine 3 mg/kg + naltrexone 3 ng/kg b.i.d. from day 1, Day 5)?
Answer: 4.5

Question: And the “Enhancement … (tail flick)” value (mice [1]; male mice, Group 2: morphine 3 mg/kg + naltrexone 3 ng/kg b.i.d. from day 1, Day 8)?
Answer: 5.5

Question: What about the “Enhancement … (tail flick)” value (mice [1]; male mice, Group 2: morphine 3 mg/kg + naltrexone 3 ng/kg b.i.d. from day 1, Day 10) of the same compound?
Answer: 2.7

Question: What about the “Enhancement … (tail flick)” value (mice [1]; male mice, Group 2: morphine 3 mg/kg + naltrexone 3 ng/kg b.i.d. from day 1, Day 12, single bolus 10 μg/kg naltrexone to every mouse) of the same compound?
Answer: 1.1

Question: And the “Enhancement … (tail flick)” value (mice [1]; male mice, Group 3: morphine 3 mg/kg + naltrexone 30 ng/kg b.i.d. from day 1, Day 1)?
Answer: 12.4

Question: And the “Enhancement … (tail flick)” value (mice [1]; male mice, Group 3: morphine 3 mg/kg + naltrexone 30 ng/kg b.i.d. from day 1, Day 3)?
Answer: 9.3

Question: And the “Enhancement … (tail flick)” value (mice [1]; male mice, Group 3: morphine 3 mg/kg + naltrexone 30 ng/kg b.i.d. from day 1, Day 5)?
Answer: 7.5

Question: What about the “Enhancement … (tail flick)” value (mice [1]; male mice, Group 3: morphine 3 mg/kg + naltrexone 30 ng/kg b.i.d. from day 1, Day 8) of the same compound?
Answer: 7.1

Question: And the “Enhancement … (tail flick)” value (mice [1]; male mice, Group 3: morphine 3 mg/kg + naltrexone 30 ng/kg b.i.d. from day 1, Day 10)?
Answer: 3.2

Question: What about the “Enhancement … (tail flick)” value (mice [1]; male mice, Group 3: morphine 3 mg/kg + naltrexone 30 ng/kg b.i.d. from day 1, Day 12, single bolus 10 μg/kg naltrexone to every mouse) of the same compound?
Answer: −0.8

Question: What about the “Enhancement … (tail flick)” value (mice [1]; male mice, Group 4: morphine 3 mg/kg + naltrexone 300 ng/kg b.i.d. from day 1, Day 1) of the same compound?
Answer: 16.3

Question: What about the “Enhancement … (tail flick)” value (mice [1]; male mice, Group 4: morphine 3 mg/kg + naltrexone 300 ng/kg b.i.d. from day 1, Day 3) of the same compound?
Answer: 17.1

Question: And the “Enhancement … (tail flick)” value (mice [1]; male mice, Group 4: morphine 3 mg/kg + naltrexone 300 ng/kg b.i.d. from day 1, Day 5)?
Answer: 11.8

Question: What about the “Enhancement … (tail flick)” value (mice [1]; male mice, Group 4: morphine 3 mg/kg + naltrexone 300 ng/kg b.i.d. from day 1, Day 8) of the same compound?
Answer: 9.4

Question: And the “Enhancement … (tail flick)” value (mice [1]; male mice, Group 4: morphine 3 mg/kg + naltrexone 300 ng/kg b.i.d. from day 1, Day 10)?
Answer: 6.1

Question: What about the “Enhancement … (tail flick)” value (mice [1]; male mice, Group 4: morphine 3 mg/kg + naltrexone 300 ng/kg b.i.d. from day 1, Day 12, single bolus 10 μg/kg naltrexone to every mouse) of the same compound?
Answer: −0.2

Question: And the “Enhancement … (tail flick)” value (mice [1]; male mice, Group 5: morphine 3 mg/kg + naltrexone 3000 ng/kg b.i.d. from day 1, Day 1)?
Answer: 13.5

Question: And the “Enhancement … (tail flick)” value (mice [1]; male mice, Group 5: morphine 3 mg/kg + naltrexone 3000 ng/kg b.i.d. from day 1, Day 3)?
Answer: 13.0

Question: And the “Enhancement … (tail flick)” value (mice [1]; male mice, Group 5: morphine 3 mg/kg + naltrexone 3000 ng/kg b.i.d. from day 1, Day 5)?
Answer: 12.0

Question: And the “Enhancement … (tail flick)” value (mice [1]; male mice, Group 5: morphine 3 mg/kg + naltrexone 3000 ng/kg b.i.d. from day 1, Day 8)?
Answer: 10.4

Question: And the “Enhancement … (tail flick)” value (mice [1]; male mice, Group 5: morphine 3 mg/kg + naltrexone 3000 ng/kg b.i.d. from day 1, Day 10)?
Answer: 7.4

Question: And the “Enhancement … (tail flick)” value (mice [1]; male mice, Group 5: morphine 3 mg/kg + naltrexone 3000 ng/kg b.i.d. from day 1, Day 12, single bolus 10 μg/kg naltrexone to every mouse)?
Answer: −0.7

Question: And the “Enhancement of latency versus other concentrations” value (mice [1]; male mice, naltrexone at 300 ng with morphine 3 mg/kg from day 1, Days 1, 3, 5, 8, 10)?
Answer: significantly greater

Question: What about the “Latency versus other concentrations” value (mice [1]; males and females combined, naltrexone 30 ng/kg and 300 ng/kg, days 1, 3, 5, 6, 8, 10) of the same compound?
Answer: significantly longer latency

Question: What about the “Development of tolerance to morphine” value (mice [1]; naltrexone in combination with morphine) of the same compound?
Answer: prevents the mice from developing a tolerance to morphine

Question: What about the “Development of tolerance to oxycodone” value (mice [2]; female mice, 1 or 5 mg/kg oxycodone with 1 pg/kg, 1 ng/kg or 1 μg/kg naltrexone or 1 pg/kg nor-BNI) of the same compound?
Answer: None of the mice developed tolerance

Question: What about the “Development of tolerance to oxycodone” value (mice [2]; male mice, 0.1 mg/kg oxycodone plus 1 ng/kg naltrexone, 1 ng/kg nalmefene or 1 pg/kg nor-BNI) of the same compound?
Answer: did not develop tolerance
